What was measured:
AKR1B10_C299A mutant = AKR1B10_C299A mutant (Homo sapiens, UniProt O60218, C299A); assay: AKR1B10 Inhibition Assay; format: biochemical; details: VC59 0.5-50 µM, 1 h; tolrestat, isolithocholic acid 500 nM, 15 min
AKR1B10 = AKR1B10 (Homo sapiens, UniProt O60218); details: cited from earlier work
Sequence of AKR1B10 (O60218 whole entry): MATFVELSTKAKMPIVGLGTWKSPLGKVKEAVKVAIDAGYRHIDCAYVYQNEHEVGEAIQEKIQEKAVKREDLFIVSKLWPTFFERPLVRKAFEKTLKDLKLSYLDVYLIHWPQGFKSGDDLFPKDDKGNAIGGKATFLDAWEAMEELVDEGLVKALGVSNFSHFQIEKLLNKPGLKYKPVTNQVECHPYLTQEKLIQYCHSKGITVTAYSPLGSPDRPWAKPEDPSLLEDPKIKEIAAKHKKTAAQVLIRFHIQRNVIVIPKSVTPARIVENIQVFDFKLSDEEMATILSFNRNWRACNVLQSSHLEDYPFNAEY

Sequence of AKR1B10_C299A mutant (O60218 whole entry C299A): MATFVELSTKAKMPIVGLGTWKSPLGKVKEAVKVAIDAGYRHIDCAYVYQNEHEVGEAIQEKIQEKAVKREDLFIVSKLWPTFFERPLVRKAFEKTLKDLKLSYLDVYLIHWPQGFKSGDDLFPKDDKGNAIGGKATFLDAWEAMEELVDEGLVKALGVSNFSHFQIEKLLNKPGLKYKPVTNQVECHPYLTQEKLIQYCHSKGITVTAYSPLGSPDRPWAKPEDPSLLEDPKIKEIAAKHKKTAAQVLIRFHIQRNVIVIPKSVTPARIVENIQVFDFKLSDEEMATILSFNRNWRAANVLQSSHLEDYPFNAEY

In the case of C[C@H](CCC(=O)O)[C@H]1CC[C@H]2[C@@H]3CC[C@@H]4C[C@@H](O)CC[C@]4(C)[C@H]3CC[C@]12C [isolithocholic acid], the “inhibition of AKR1B10_C299A mutant reductase activity (NADPH absorbance assay)” value (AKR1B10_C299A mutant) is reported as “maintained sensitivity”.
For CCCCC[C@H](O)/C=C/[C@H]1C=CC(=O)[C@@H]1CCCCCCC(=O)O [prostaglandin A1], the “inhibition of AKR1B10 activity by natural electrophilic compounds engaging C299” value (AKR1B10) is given as “inhibit AKR1B10 activity”.
With COc1ccc2c(C(=S)N(C)CC(=O)O)cccc2c1C(F)(F)F [tolrestat] the “inhibition of AKR1B10_C299A mutant reductase activity (NADPH absorbance assay)” value (AKR1B10_C299A mutant) was “maintained sensitivity”.

From paper PMC8155467 (ACS Central Science, 2021)
